Measured values published in ChEMBL document CHEMBL1201862, “PubChem BioAssay data set” (2004).
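All cell lines were grown in 96-well plates and treated with compound for 48 hours. Here, GI50 denotes the concentration required for 50% inhibition of growth.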 Activity calls are given as the source filed them. Rule as the data show it: active = GI50 up to about 1.1 µM and inactive = higher.

Experiments:
Assay in all cases: inhibition of tumour cell growth, NCI panel, 48 h
CAKI-1 = system: CAKI-1
Hs-578T = system: Hs-578T
SR = system: SR
RPMI-8226 = system: RPMI-8226
786-0 = system: 786-0
PC-3 = system: PC-3
MDA-N = system: MDA-N
RXF 393 = system: RXF 393
A498 = system: A498
HT-29 = system: HT-29
BT-549 = system: BT-549
MOLT-4 = system: MOLT-4
MDA-MB-231 = system: MDA-MB-231
HOP-92 = system: HOP-92
OVCAR-5 = system: OVCAR-5
NCI/ADR-RES = system: NCI/ADR-RES
OVCAR-3 = system: OVCAR-3
SK-MEL-5 = system: SK-MEL-5

Measured: GI50

Cc1cc2nc3[nH]nc(N)c3nc2cc1C
inactive: CAKI-1 > 100 µM | Hs-578T 52.7 µM | SR > 100 µM | RPMI-8226 > 100 µM | 786-0 > 100 µM | PC-3 > 100 µM | MDA-N > 100 µM | RXF 393 32.3 µM | A498 > 100 µM | HT-29 > 100 µM | BT-549 > 100 µM | MOLT-4 > 100 µM | MDA-MB-231 > 100 µM | HOP-92 > 100 µM | OVCAR-5 > 100 µM | NCI/ADR-RES > 100 µM

ClC1(Cl)C(c2ccccc2)C1c1ccccc1 (stereo unspecified)
inactive: CAKI-1 30 µM | Hs-578T 20.7 µM | SR 7.64 µM | RPMI-8226 24.4 µM | 786-0 28.5 µM | PC-3 62.2 µM | MDA-N 5.32 µM | OVCAR-3 21.1 µM | RXF 393 14.4 µM | A498 38.8 µM | BT-549 33.4 µM | MOLT-4 26.7 µM | MDA-MB-231 54.2 µM | OVCAR-5 43.6 µM | NCI/ADR-RES 7.16 µM

O=C(O)c1cc(NC2=C(Cl)C(=O)c3c(O)ccc(O)c3C2=O)ccc1O
inactive: CAKI-1 > 10 µM | Hs-578T > 10 µM | SK-MEL-5 > 10 µM | 786-0 > 10 µM | PC-3 > 10 µM | MDA-N > 10 µM | OVCAR-3 > 10 µM | A498 > 10 µM | HT-29 > 10 µM | BT-549 > 10 µM | MOLT-4 > 10 µM | MDA-MB-231 > 10 µM | HOP-92 > 10 µM | OVCAR-5 > 10 µM | NCI/ADR-RES > 10 µM

O=C(c1ccco1)N(C(=S)OCc1ccccn1)c1ccccc1
inactive: CAKI-1 > 100 µM | Hs-578T > 100 µM | SK-MEL-5 88.9 µM | SR 1.25 µM | RPMI-8226 49.3 µM | 786-0 > 100 µM | PC-3 59.8 µM | MDA-N > 100 µM | OVCAR-3 > 100 µM | RXF 393 30.9 µM | A498 > 100 µM | HT-29 > 100 µM | BT-549 > 100 µM | MOLT-4 > 100 µM | MDA-MB-231 > 100 µM | OVCAR-5 > 100 µM | NCI/ADR-RES 62.5 µM

CC(C)=CC(=O)c1[nH]c2ccccc2c1CC(=O)NCCc1cncn1C
inactive: CAKI-1 > 100 µM | Hs-578T 99.1 µM | SK-MEL-5 94.8 µM | SR 17.2 µM | 786-0 98.9 µM | PC-3 50.2 µM | MDA-N 50.7 µM | OVCAR-3 58.1 µM | RXF 393 29.6 µM | A498 30 µM | HT-29 35.7 µM | BT-549 56.9 µM | MOLT-4 > 100 µM | MDA-MB-231 84.3 µM | HOP-92 36.4 µM | OVCAR-5 > 100 µM | NCI/ADR-RES > 100 µM

CCOC(=O)c1ccc(/N=C2/C(=S)N(c3ccc(C(=O)OCC)cc3)C(=N)N2/N=C/c2ccccc2)cc1
inactive: CAKI-1 13.9 µM | Hs-578T 47 µM | SK-MEL-5 3.37 µM | SR 3.52 µM | RPMI-8226 4.13 µM | 786-0 11.3 µM | PC-3 2.61 µM | MDA-N 12.1 µM | OVCAR-3 13.1 µM | RXF 393 5.13 µM | HT-29 18.4 µM | BT-549 17.5 µM | MDA-MB-231 8.05 µM | HOP-92 15.9 µM | OVCAR-5 20 µM | NCI/ADR-RES 38.3 µM
